Reference: patent EP1348696B1, “Use of optically active clausenamides for the preparation of pharmaceutical compositions, pharmaceutical compositions containing the same” (INSTITUTE OF MATERIA MEDICA, CHINESE ACADEMY OF MEDICAL …, priority 2002, dated 2003)

System: β-AP (25-35)-treated rats
Experiment: Morris water maze, memory impairment induced by aggregated Aβ 25-35
Format: in vivo
Settings: A β 25-35 alone
Excerpt: Pathological features of Alzheimer's disease (AD) include extensive neuronal loss and the presence of numerous neurofibrillary tangles and senile plaques in the brain. The senile plaques contain amyloid fibrils derived from a 39-43 amino acids peptide referred to as β-amyloid or Aβ which can produce neurotoxicity. Aβ 25-35 poccesses the similar neurotoxicity and ability of self-aggregation as Aβ 1-42. Administrated aggregated Aβ 25-35 into rat's lateral cerebral ventricle induced memory impairment in Morris water maze. […] The latency for finding the platform beginning from 3th to 5th day in (-)clausenamide 8mg • kg^-1 and 40mg • kg^-1 groups was shorter than that of A β group. […] With increasing of training days, the initial heading angle became small. On the 3th day, the initial heading angle of A β group was larger than control. […] (see Tab.3)
There are four strategies for finding platform in Morris water maze: random, circle, taxis and line. In the beginning of training the search strategies for finding target is mainly circle and random, with the increasing of training, the percentage of the two strategies declined gradually, Beginning from the 3th day, declining speed in control and (-) clausenamide group was faster than A β ,(+) clausenamide and piracetam groups. Meanwhile, the appearance of taxis and line strategies in (-) clausenamide group increased markedly. Table 3a Effects of (-),(+) Clausenamide on the number of error of β-AP (25-35)-treated rats inone trial passive avoidance. Value is represented as MEAN±S.E.M.

Sequence: A β 25-35: β-amyloid fragment with neurotoxicity and self-aggregation similar to Aβ 1-42; icv induces memory impairment (GSNKGAIIGLM; Amyloid-beta protein 42; UniProt P05067 696-706, looked up, fragment)
- initial heading angle, Training days 1: 106.3±29.8
- initial heading angle, Training days 2: 98.7±30.4
- initial heading angle, Training days 3: 73.6±20.3
- initial heading angle, Training days 4: 60.6±23.8
- initial heading angle, Training days 5: 46.7±19.4
